Experimental data reported in patent EP4083217A1, “IN VIVO […] THERAPY FOR THE TREATMENT OF PRIMARY HYP[…] 1” (Centro de Investigaciones Energéticas, Medioambientales y …, priority 2021, dated 2022).

Test system: HepG2 cells
Assay: Transduction enhancer Cyclosporin H in vitro testing (eGFP positive cells by flow cytometry)
Type: cell-based
Protocol: Due to the important relevance of the target tissue origin, HepG2 cells, a hepatic cell line, were used.
Three days after transduction, the percentage of eGFP positive cells was analysed by Flow Cytometry. All conditions were performed as triple experimental replicates.

C/C=C/C[C@@H](C)[C@@H](O)[C@H]1C(=O)N[C@@H](CC)C(=O)N(C)CC(=O)N(C)[C@@H](CC(C)C)C(=O)N[C@@H](C(C)C)C(=O)N(C)[C@@H](CC(C)C)C(=O)N[C@@H](C)C(=O)N[C@H](C)C(=O)N(C)[C@@H](CC(C)C)C(=O)N(C)[C@@H](CC(C)C)C(=O)N(C)[C@H](C(C)C)C(=O)N1C [CsH, Cyclosporin H]
transduction percentage (eGFP positive cells) (HepG2, LV.ET.eGFP.142-3pT MOI 0.3, 4 µM CsH during transduction): 37.67% | percentage of transduced cells (HepG2, LV.ET.eGFP.142-3pT MOI 0.3, 16 µM CsH 16 hours pre-treatment and during transduction): 31.03% | transduction percentage (eGFP positive cells) (HepG2, LV.ET.eGFP.142-3pT MOI 0.3, 16 µM CsH during transduction): 51.5%
